Source: ChEMBL document CHEMBL1150460, “Synthesis and 5-HT3 receptor antagonist potency of novel (endo) 3,9-diazabicyclo[3.3.1]nonan-7-amino derivatives” (Bioorg Med Chem Lett, 1994)

Legend:
[1] = target: Serotonin 3 (5-HT3) receptor (Rattus norvegicus) (UniProt P35563+Q9JJ16); experiment: Inhibition of the von Bezold-Jarisch reflex bradycardia induced by an iv bolus injection of 5-HT; type: functional, organism-based
[2] = target: T1, Serotonin 3 (5-HT3) receptor (Rattus norvegicus, UniProt P35563+Q9JJ16); experiment: Displacement of [3H]granisetron from 5-hydroxytryptamine 3 receptor of rat cortex
T1 sequence (P35563 whole entry): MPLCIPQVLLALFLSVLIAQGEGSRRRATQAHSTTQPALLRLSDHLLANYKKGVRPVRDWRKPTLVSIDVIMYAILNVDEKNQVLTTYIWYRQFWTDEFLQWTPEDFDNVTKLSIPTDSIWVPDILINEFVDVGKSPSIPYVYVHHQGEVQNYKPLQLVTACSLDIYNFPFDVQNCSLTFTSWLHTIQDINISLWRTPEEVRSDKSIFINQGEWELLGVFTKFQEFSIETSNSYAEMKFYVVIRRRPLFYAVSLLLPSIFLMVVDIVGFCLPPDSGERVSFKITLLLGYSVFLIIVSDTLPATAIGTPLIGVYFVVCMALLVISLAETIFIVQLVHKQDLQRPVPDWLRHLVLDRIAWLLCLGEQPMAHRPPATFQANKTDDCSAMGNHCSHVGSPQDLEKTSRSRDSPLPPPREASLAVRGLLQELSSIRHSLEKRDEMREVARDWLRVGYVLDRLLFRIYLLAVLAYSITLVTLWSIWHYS
T1 sequence (Q9JJ16 whole entry): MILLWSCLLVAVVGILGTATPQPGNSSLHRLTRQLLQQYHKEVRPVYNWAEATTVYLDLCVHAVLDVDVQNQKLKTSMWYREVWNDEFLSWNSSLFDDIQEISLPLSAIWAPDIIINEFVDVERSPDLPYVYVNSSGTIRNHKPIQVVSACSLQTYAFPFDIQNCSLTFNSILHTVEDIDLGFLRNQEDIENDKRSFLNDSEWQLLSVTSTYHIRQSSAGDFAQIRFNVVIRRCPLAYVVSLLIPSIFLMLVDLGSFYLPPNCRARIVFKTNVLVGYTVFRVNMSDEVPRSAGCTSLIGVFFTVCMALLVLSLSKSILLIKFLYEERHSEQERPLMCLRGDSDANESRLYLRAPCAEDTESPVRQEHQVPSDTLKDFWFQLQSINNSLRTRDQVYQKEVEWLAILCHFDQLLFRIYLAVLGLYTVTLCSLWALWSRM

Row | Inhibitory dose [1] [µg/kg] | Structure (SMILES) | Ki [2] [nM] | Inhibition [1] [µg/kg]
1 | 3 | CN1C2CC(NC(=O)c3nn(C)c4ccccc34)CC1CN(c1ccccc1)C2 (stereo not drawn) |  | 
2 |  | CN1C2CC(NC(=O)N3CC(C)(C)c4ccccc43)CC1CN(C(=O)c1ccccc1)C2 (stereo not drawn) | 10 | 
3 |  | CCCCN1CC2CC(NC(=O)c3nn(C)c4ccccc34)CC(C1)N2C (stereo not drawn) | 2.51 | 
4 | 0.5 | COc1cc(N)c(Cl)cc1C(=O)NC1CC2CN(Cc3ccccc3)CC(C1)N2C (stereo not drawn) |  | 
5 | 2.5 | COc1cc(N)c(Cl)cc1C(=O)NC1CC2CN(C)CC(C1)N2C (stereo not drawn) |  | 
6 |  | CN1CC2CC(NC(=O)N3CC(C)(C)c4ccccc43)CC(C1)N2C (stereo not drawn) | 1 | 
7 |  | CCCN1CC2CC(NC(=O)c3nn(C)c4ccccc34)CC(C1)N2C (stereo not drawn) | 3.16 | 
8 |  | CC(=O)N1CC2CC(NC(=O)N3CC(C)(C)c4ccccc43)CC(C1)N2C (stereo not drawn) | 3.98 | 
9 |  | CCCCN1CC2CC(NC(=O)N3CC(C)(C)c4ccccc43)CC(C1)N2C (stereo not drawn) | 20 | 
10 | 0.7 | CN1C2CCCC1CC(NC(=O)c1nn(C)c3ccccc13)C2 (stereo not drawn) |  | 
11 |  | CC(C)CN1CC2CC(NC(=O)c3nn(C)c4ccccc34)CC(C1)N2C (stereo not drawn) | 3.16 | 
12 |  | CN1C2CNCC1CC(NC(=O)N1CC(C)(C)c3ccccc31)C2 (stereo not drawn) | 1 | 
13 | 1.8 | CN1C2CC(NC(=O)N3CC(C)(C)c4ccccc43)CC1CN(Cc1ccccc1)C2 (stereo not drawn) |  | 
14 |  | CC(C)N1CC2CC(NC(=O)c3nn(C)c4ccccc34)CC(C1)N2C (stereo not drawn) | 0.794 | 0.65

Row | Structure (SMILES) | Inhibitory dose [1] [µg/kg] | Ki [2] [nM] | Inhibition [1] [µg/kg]
15 | CCN1CC2CC(NC(=O)N3CC(C)(C)c4ccccc43)CC(C1)N2C (stereo not drawn) | 0.6 | 2.51 | 
16 | CC(C)N1CC2CC(NC(=O)N3CC(C)(C)c4ccccc43)CC(C1)N2C (stereo not drawn) | 0.43 | 1.26 | 
17 | CCN1CC2CC(NC(=O)c3nn(C)c4ccccc34)CC(C1)N2C (stereo not drawn) | 0.8 | 1.58 | 
18 | CN1C2CC(NC(=O)c3nn(C)c4ccccc34)CC1CN(Cc1ccccc1)C2 (stereo not drawn) | 0.16 | 0.501 | 
